Measured values reported in article PMC13168289, “Potent acridone antimalarial against all three life stages of Plasmodium” (Nature Communications, 2026).
Read-outs that look alike come from different tables or passages of the source.

Columns and labels:
[1] = set-up: method as in reviewer #3 remark; conditions: in humans; ref reviewer #3 remark; cited from earlier work
[2] = test system: P. falciparum K13 mutant parasites SP045 and SP060; assay: Growth, Resistance, and Recovery Assay (GRRA), ring-stage survival dose-response; type: cell-based, Plasmodium falciparum; conditions: read-out: GRRA50
Experimental: These isolates carry the validated R561H Kelch 13 propeller domain mutation associated with delayed parasite clearance in East Africa[24],[25]. Using the 6-hour GRRA[23], all strains were thawed, frozen, and cultured under standard conditions at 5% hematocrit. Samples parasitemia was measured by flow cytometry. Parasite cultures that were predominantly segmented schizonts were synchronized using a single Percoll layer method. Cultures that met quality control requirements of ≥70% early ring stage and ≥1% parasitemia were adjusted to 0.25% parasitemia at 2% hematocrit. […] The GRRA50 implements 11 RSA experiments to generate a dose-response curve for each parasite line per drug. Master mixes of samples were aliquoted into 2 technical replicates of 275 µL each in 96 well plates (2 treated each condition, 2 untreated). At 6 h post-exposure, 200 µL of media was removed from the wells and replaced with 200 µL of incomplete media and spun for 3 min at 800 g to rinse. The rinse was repeated a total of 3 times, after which 200 µL complete media was added back to the wells. At 120 h post-treatment, thin microscopy smears were made using 2 µL of culture for each sample and 20 µL of culture was transferred to PCR strips and stored at −80 °C until qPCR quantification. A standard curve of known parasitemia was generated using the NF54 parasite line for each qPCR quantification for conversion from Cycle threshold (Ct) to parasitemia and comparison between qPCR experiments. Replicate viability was calculated according to the GRRA method. Each individual reaction mixture and cycling conditions were set to previously used methods. Ct was calculated using AB1 SDA 2.4.1. software. […] We find that commonly reported thresholds (cutoffs) for resistance (e.g., 1% survival in traditional RSA) may not be broadly applicable, especially with lower thresholds subject to potential artifacts due to markedly low survival rates of ART-sensitive and low-level ART-resistant parasites. Regular RSA relies on a single drug concentration, 700 nM. To gain a more fine-scale quantification to compare drug susceptibilities with relevance to therapeutic success and failure, we developed the GRRA50 to generate full dose-response curves for precise quantitative comparisons.

[3] = test system: P. falciparum Dd2, DR1 and DR4; assay: SYBR Green 72 h drug susceptibility assay against ART-resistant clones; type: cell-based, Plasmodium falciparum
Experimental: Drug susceptibility assay against ART-resistant P. falciparum clones was performed using a SYBR Green-based assay[44],[74]. Synchronized ring stage parasites were cultured for 72 h in the presence of the test drug. The assay was performed in 96-well plates at 2% hematocrit and 0.5% starting parasitemia. Each experiment was conducted in triplicate and repeated with three biological replicates. Parasite growth at 72 h was quantified via SYBR Green I staining. The obtained counts were plotted against the logarithm of the compound concentration, and a curve was fitted with non-linear regression (sigmoidal dose-response/variable slope equation) to determine IC50 (half-maximal inhibitory concentration) values. The data was analyzed using GraphPad Prism software 8.0.

[4] = test system: luciferase-expressing P. berghei sporozoites; assay: liver-stage prophylaxis murine model with IVIS bioluminescence imaging; type: in vivo, P. berghei in Albino C57BL/6 mice; conditions: Days -1, 0, 1
Excerpt: Four- to six-week-old female inbred Albino C57BL/6 mice (18–22 g, Jackson Laboratories, Bar Harbor, ME, USA) were utilized. Animals were assigned unique study numbers via ear tags and cage cards and were randomly assigned to treatment or control groups (n = 5 per group) using a weigh-stratified randomization procedure. All animals were quarantined and acclimatized for 7 days prior to study initiation and were housed in a 12:12 light/dark cycle with food and water provided ad libitum. Mice were infected intravenously with 10^4 luciferase-expressing P. berghei sporozoites (ANKA strain) via tail vein injection on Day 0. Drugs were dissolved in PEG-400 and administered orally once per day on Day -1, Day 0, and Day 1. […] Infection reduction was assessed by comparing the bioluminescence signals emitted by treated groups with signals emitted by the vehicle control-treated group at that time point. Later blood-stage parasitemia was determined via flow cytometry. […] Long-term blood-stage efficacy was evaluated starting on Day 6 post-infection and continued for up to 31 days using flow cytometry.
In vivo antimalarial efficacy studies were performed as described above.

[5] = in vivo pharmacokinetics, single oral dose; set-up: species or system ICR-CD1 mice; conditions: 40 mg/kg oral
Experimental: PK studies were conducted using well-established methods[21],[31],[50]. Four to five weeks old male and female outbred ICR-CD1 mice (Charles River Laboratories. Inc. Raleigh, NC) weighing 23–35 g were used for PK studies. Animals were assigned unique study numbers via ear tags and cage cards and were randomly assigned to treatment or control groups (n = 3 per group) using a weigh-stratified randomization procedure. All animals were quarantined and acclimatized for 7 days prior to study initiation and were housed in a 12:12 light/dark cycle with food and water provided ad libitum. […] At each time point, a terminal whole blood sample was collected by cardiac puncture using heparinized syringes (Heparin, Hospira, Lake Forest, IL), while mice were under anesthesia in accordance with the approved IACUC protocol. Following the separation of appropriate aliquots, plasma was obtained from the whole blood via centrifugation at 16,200 rpm for 10 min at 4 °C. Mice were humanely euthanized as described in the protocol, after which the liver samples were also collected and weighed at each experimental time point. All tissue samples were immediately preserved on dry ice and later stored at −80 °C until analytical work was performed. Drug concentrations were determined for each sample taken from animals dosed with the test compound. PK parameters such as time to maximum plasma concentration (Tmax), maximum plasma concentration (Cmax), the apparent elimination half-life (t1/2), area under the curve (AUC), etc., were obtained using noncompartmental analysis via the Phoenix WinNonlin software package (version 6.4; Pharsight Corp., Mountain View, CA).

Question: With `O=C1C(O)=C([C@H]2CC[C@H](c3ccc(Cl)cc3)CC2)C(=O)c2ccccc21` [ATV, atovaquone] as the molecule, how does the T1/2 [1] read?
Answer: The T1/2 was 5 to 6 days.

Question: For `O=c1c2ccc(Oc3ccc(OC(F)(F)F)cc3)cc2[nH]c2cc(Cl)cc(F)c12` [T111], which IC50 ([2]; SP045 (K13 V555A, ART-S)) is on record?
Answer: Its IC50 is 0.78 nM.

Question: And the IC50 ([2]; SP060 (K13 R561H, ART-R))?
Answer: The IC50 was 0.87 nM.

Question: What about the IC50 ([3]; DR1 (ART-R)) of the same molecule?
Answer: The IC50 was 0.11 nM.

Question: And the IC50 ([3]; Dd2)?
Answer: The IC50 was 0.028 nM.

Question: What about the “protection from liver-stage infection” value ([4]; 1 mg/kg/day oral) of the same molecule?
Answer: Its value is “did not clear liver-stage infection”.

Question: What about the “protection from liver-stage infection” value ([4]; 4 mg/kg/day oral) of the same molecule?
Answer: The value was “did not clear liver-stage infection”.

Question: And the “protection from liver-stage infection” value ([4]; 10 mg/kg/day oral)?
Answer: The value was “full protection”.

Question: And the AUCinf ([5]; female, liver)?
Answer: Its AUCinf is 23,495 ng.h/mL.

Question: What about the AUClast ([5]; female, liver) of the same molecule?
Answer: The AUClast was 23,384 ng.h/mL.

Question: And the Cmax ([5]; female, liver)?
Answer: Its Cmax is 1503 ng/mL.

Question: And the Tmax ([5]; female, liver)?
Answer: The Tmax was 8.0 h.

Question: And the AUCinf ([5]; female, plasma)?
Answer: Its AUCinf is 185 ng·h/mL.

Question: What about the AUClast ([5]; female, plasma) of the same molecule?
Answer: The AUClast was 169 ng·h/mL.

Question: What about the Cmax ([5]; female, plasma) of the same molecule?
Answer: The Cmax was 11.3 ng/mL.

Question: And the Tmax ([5]; female, plasma)?
Answer: The Tmax was 4.0 h.

Question: And the AUCinf ([5]; male, liver)?
Answer: Its AUCinf is 26,044 ng.h/mL.

Question: And the AUClast ([5]; male, liver)?
Answer: Its AUClast is 25,969 ng.h/mL.

Question: What about the Cmax ([5]; male, liver) of the same molecule?
Answer: The Cmax was 1704 ng/mL.

Question: What about the Tmax ([5]; male, liver) of the same molecule?
Answer: The Tmax was 1.0 h.

Question: And the AUCinf ([5]; male, plasma)?
Answer: The AUCinf was 180 ng·h/mL.

Question: What about the AUClast ([5]; male, plasma) of the same molecule?
Answer: Its AUClast is 156 ng·h/mL.

Question: And the Cmax ([5]; male, plasma)?
Answer: The Cmax was 6.8 ng/mL.

Question: What about the Tmax ([5]; male, plasma) of the same molecule?
Answer: The Tmax was 4.0 h.
